The source of these data is patent US20190101551A1, “Real-time and Continuous Measurement in Vivo Using Aptamer-Based Biosensors” (The Regents of the University of California, priority 2016, published 2019).

Bounds are passed on as bounds.

For series [1] the following is noted: male, Sprague-Dawley, rat, in vivo, iv.
Method: (§1) All in vivo measurements were performed using a two-electrode setup in which the reference and counter electrodes were a silver wire coated with a silver chloride film as described above. The measurements carried out in vivo were recorded using a handheld potentiostat.
(§2) In vivo Experiments Animals. Adult male Sprague-Dawley rats (300-500 g) were pair housed in a temperature and humidity controlled vivarium on a 12-h light-dark cycle and provided ad libitum access to food and water. All animal procedures were consistent with the guidelines of the NIH Guide for Care and Use of Laboratory Animals.
(§3) Surgery. For the anesthetized preparation, rats were anesthetized using isoflurane gas inhalation (2.5%) and monitored throughout the experiment using a pulse oximeter to measure heart rate and % SpO2 to insure depth of anesthesia. After exposing both ventral jugular veins, a simple catheter made from a [sequence] tube (Dow Corning, Midland, Mich., USA) fitted with a steel cannula was implanted into the left jugular vein. 0.1-0.3 mL of heparin (1000 U/mL) were immediately infused through the catheter to prevent blood clotting. The sensor was inserted into the right jugular vein and secured in place with surgical suture.
(§4) Measurements. A 30-minute sensor baseline was established before the first drug infusion. For anesthetized animals, a 3 mL syringe filled with the target drug was connected to the sensor-free catheter (placed in the jugular opposite that in which the sensor is emplaced) and placed in a motorized syringe pump. After establishing a stable baseline, the target drug was infused through this catheter at a rate of 0.2 mL/min. Target drugs included kanamycin (0.1 M solution), gentamicin (10 mg/mL), tobramycin (0.1 M solution), and doxorubicin (1.0 mM). After drug infusion, recordings were taken for up to 2 hours before the next infusion.
(§5) Sensors were fabricated using an aptamer recognizing the aminoglycoside antibiotics. Using these sensors, monotonically increasing intravenous doses of kanamycin were administered spanning the therapeutic ranges used in humans (10-30 mg/kg) and animals (25-30 mg/kg).
(§6) The pharmacokinetics of tobramycin were monitored following sequential 20 mg/kg intravenous injections conducted 2 hours apart in each of three rats.
Series [2] is described as follows: Continuous real-time in vivo measurement of drug levels in blood with membrane-protected EAB sensors in the jugular vein of rats. Conditions: anesthetized Sprague-Dawley rats, after each injection.
Method: as §1, §2, §3, §4, §5, §6
The nature of series [3]: in vivo. To be noted: male, Sprague-Dawley, rat.
Method: as §1, §2, §3, §4, §5, §6

With `NC[C@H]1O[C@H](O[C@H]2[C@H](O)[C@@H](O[C@H]3O[C@H](CO)[C@@H](O)[C@H](N)[C@H]3O)[C@H](N)C[C@@H]2N)[C@H](O)[C@@H](O)[C@@H]1O` [kanamycin], the “maximum concentrations depending on the delivered dose” value in series [1] lay within 34 to 400 µM. Besides, the maximum concentration observed in series [1] (10 mg/kg) is 200 µM.
Regarding `COc1cccc2c1C(=O)c1c(O)c3c(c(O)c1C2=O)C[C@@](O)(C(=O)CO)C[C@@H]3O[C@H]1C[C@H](N)[C@H](O)[C@H](C)O1` [DOX, doxorubicin], the “time to effective clearance of 90% of the drug from the circulatory system” value in series [2] is given as at most 50 min. The Cmax – broadly, the maximum level reached in the sampled fluid or tissue – in series [3] was about 600 nM.
